Test results reported in patent US11028103B2, “Derivatized 3-styryl-cephalosporins” (priority 2013, dated 2021).

Tests used:
Format in all cases: biochemical
[1] = target: T1, IMP-1 (Serratia marcescens, UniProt P52699); assay: 10 minute IC50 β-lactamase inhibition assay (Chromacef hydrolysis); conditions: 10 min preincubation, 300 μM Chromacef, pH 7.0, 30° C.
T1 construct: made in house
From the text: (§1) A chromogenic cephalosporin, Chromacef, is synthesized and isolated as described by Yu, et al. (Yu S; Vosbeek, A; Corbella, K; Severson, J; Schesser, J; and Sutton, L D. A chromogenic cephalosporin for fJ-lactamase inhibitor screening assays (2012) Analytical Biochemistry, 438, 96-98) and used to monitor β-lactamase activity. β-Lactamase enzymes are isolated from bacteria by methods known to those knowledgeable in the art. A typical assay monitors the hydrolysis of Chromacef via the formation of a species which absorbs maximally at 442 nm (molar extinction coefficient=14,500). Absorption is monitored as a function of time in buffer (either 50 mM, pH 7.0 sodium phosphate or 100 mM, pH 7.0 Trisma buffer supplemented with 100 μM ZnCl2), 100-300 μM Chromacef and 1-3 volume percent DMSO cosolvent at 30° C. using a spectrophotometer having thermal-regulated cuvette holder. The assay is initiated by addition and mixing of an appropriate amount of β-lactamase.
(§2) The 100% activity control is performed as described above using 300 μM Chromacef, 3 volume percent DMSO cosolvent in buffer (either 50 mM, pH 7.0 sodium phosphate or 100 mM, pH 7.0 Trisma buffer supplemented with 100 μM ZnCl2) at 30° C. The reaction is initiated by addition and mixing of an appropriate amount of β-lactamase and the formation of product is followed as a function of time by monitoring the increase in absorbance at 442 nm as a function of time. The reaction is followed through <10% completeness and the initial rate determined via linear least squares analysis where the slope is the initial rate.
(§3) Ten-minute inhibition assays are performed as described above using 50-500 μM inhibitor cephalosporin, 0.5-5 volume percent DMSO cosolvent, and the same amount of enzyme as used in the control assay in buffer (either 50 mM, pH 7.0 sodium phosphate or 100 mM, pH 7.0 Trisma buffer supplemented with 100 μM ZnCl2) at 30° C. The reaction is initiated by after 10 minutes points by the addition and mixing of an appropriate amount of Chromacef to give a 300 μM concentration and the formation of product is followed as a function of time by monitoring the increase in absorbance at 442 nm as a function of time. The reaction is followed through <10% completeness and the initial rate determined via linear least squares analysis where the slope is the initial rate.

[2] = target: T2, VIM-2 (Escherichia coli, UniProt Q5U7L7); assay: as above; conditions: 10 min preincubation, 300 μM Chromacef, pH 7.0, 30° C.
T2 construct: made in house
From the text: as §1, §2, §3

[3] = target: T3, NDM-1 (Klebsiella pneumoniae, UniProt C7C422); assay: as above; conditions: 10 min preincubation, 300 μM Chromacef, pH 7.0, 30° C.
T3 construct: made in house
From the text: as §1, §2, §3

[4] = target: T3, NDM-1; assay: Assay for determining irreversible β-lactamase inhibition (500-fold dilution); conditions: FIG. 2
Description: as §2
Inhibition of β-lactamase was performed at a concentration of β-lactamase 500 times greater than used in the control assay, and 50-500 μM cephalosporin inhibitor, buffer (either 50 mM, pH 7.0 sodium phosphate or 100 mM, pH 7.0 Trisma buffer supplemented with 100 μM ZnCl2), 0.5-5 volume percent DMSO cosolvent for various times. Activity assays were performed the same as the control reaction except 2.00 μL of this inhibition solution were substituted for the uninhibited enzyme solution resulting in a 500-fold dilution of inhibitor to eliminate any competitive binding of inhibitor to enzyme.

[5] = target: T4, KPC-3 (Klebsiella pneumoniae, UniProt Q9F663, H272Y); assay: 10 minute IC50 β-lactamase inhibition assay (Chromacef hydrolysis); conditions: 10 min preincubation, 300 μM Chromacef, pH 7.0, 30° C.
T4 construct: made in house
From the text: as §1, §2, §3

T3 sequence (C7C422 29-270, looked up, species assumed): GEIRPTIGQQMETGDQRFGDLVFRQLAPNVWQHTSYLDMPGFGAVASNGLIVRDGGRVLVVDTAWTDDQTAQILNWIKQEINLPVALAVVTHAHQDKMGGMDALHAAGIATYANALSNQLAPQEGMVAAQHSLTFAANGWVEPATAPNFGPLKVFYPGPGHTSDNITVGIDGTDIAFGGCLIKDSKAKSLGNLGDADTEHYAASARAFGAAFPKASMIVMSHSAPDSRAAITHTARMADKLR
T1 sequence (P52699 19-246, looked up, species assumed): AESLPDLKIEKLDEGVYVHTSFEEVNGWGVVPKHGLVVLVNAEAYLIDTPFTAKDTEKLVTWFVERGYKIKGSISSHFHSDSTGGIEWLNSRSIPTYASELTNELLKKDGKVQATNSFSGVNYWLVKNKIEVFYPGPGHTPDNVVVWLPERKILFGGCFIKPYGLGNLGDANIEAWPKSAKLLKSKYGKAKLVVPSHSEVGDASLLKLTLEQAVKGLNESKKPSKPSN
T4 sequence (Q9F663 25-293 H272Y): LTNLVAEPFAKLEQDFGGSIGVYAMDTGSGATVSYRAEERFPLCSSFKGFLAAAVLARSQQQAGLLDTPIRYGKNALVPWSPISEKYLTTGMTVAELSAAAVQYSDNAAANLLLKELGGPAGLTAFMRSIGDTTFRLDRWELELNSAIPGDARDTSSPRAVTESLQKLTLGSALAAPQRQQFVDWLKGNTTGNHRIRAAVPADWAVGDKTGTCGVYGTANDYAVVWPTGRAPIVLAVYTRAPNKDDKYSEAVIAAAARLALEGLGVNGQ

IC50 [2] | SMILES | IC50 [1] | IC50 [3] | irreversibility of the inhibition ([4]; activity after 500-fold dilution of inhibitor) | time-dependency of the inhibition ([4]; various incubation times) | IC50 [5]
10.7 µM | O=C(Cc1ccccc1)NC1C(=O)N2C(C(=O)O)=C(C=Cc3ccc(CCl)cc3)CS[C@H]12 (some centres unmarked) [II-Cl/benzyl, 3-(4-(chloromethyl)styryl)-7-(2-phenylacetamido)-ceph-3-em-4-carboxylic acid] | 61.8 µM | 6.4 µM |  |  | 
 | O=C(Cc1ccccc1)NC1C(=O)N2C(C(=O)O)=C(C=Cc3ccc(CCl)cc3[N+](=O)[O-])CS[C@H]12 (some centres unmarked) [III-Cl/benzyl, 3-(2-nitro-4-(chloromethyl)styryl)-7-(2-phenylacetamido)-ceph-3-em-4-carboxylic acid] | 0.584 µM | 0.584 µM | irreversibility of the inhibition | time-dependency of the inhibition | 0.973 µM
